Measurements published in article PMC8005217, “Unravelling Regioselectivity of Leuconostoc citreum ABK-1 Alternansucrase by Acceptor Site Engineering” (International Journal of Molecular Sciences, 2021).

What was measured:
Assay in all cases: DNS reducing sugar assay (total activity)
Type in all cases: biochemical
Settings in all cases: 0–368 mM sucrose, 50 mM sodium citrate pH 4.0, 40 °C, read-out: Km or k
[1] = target: T1, LcALT (truncated Leuconostoc citreum ABK-1 alternansucrase, pETΔ7SH, WT) (Leuconostoc citreum, UniProt A0A2H4A2Q1, W554A, form not given)
T1 construct: gene asr; pET19b via NcoI/XhoI, purified recombinant; exact borders and tags only in cited earlier work
T1 sequence (A0A2H4A2Q1 entry or part of it W554A, form open): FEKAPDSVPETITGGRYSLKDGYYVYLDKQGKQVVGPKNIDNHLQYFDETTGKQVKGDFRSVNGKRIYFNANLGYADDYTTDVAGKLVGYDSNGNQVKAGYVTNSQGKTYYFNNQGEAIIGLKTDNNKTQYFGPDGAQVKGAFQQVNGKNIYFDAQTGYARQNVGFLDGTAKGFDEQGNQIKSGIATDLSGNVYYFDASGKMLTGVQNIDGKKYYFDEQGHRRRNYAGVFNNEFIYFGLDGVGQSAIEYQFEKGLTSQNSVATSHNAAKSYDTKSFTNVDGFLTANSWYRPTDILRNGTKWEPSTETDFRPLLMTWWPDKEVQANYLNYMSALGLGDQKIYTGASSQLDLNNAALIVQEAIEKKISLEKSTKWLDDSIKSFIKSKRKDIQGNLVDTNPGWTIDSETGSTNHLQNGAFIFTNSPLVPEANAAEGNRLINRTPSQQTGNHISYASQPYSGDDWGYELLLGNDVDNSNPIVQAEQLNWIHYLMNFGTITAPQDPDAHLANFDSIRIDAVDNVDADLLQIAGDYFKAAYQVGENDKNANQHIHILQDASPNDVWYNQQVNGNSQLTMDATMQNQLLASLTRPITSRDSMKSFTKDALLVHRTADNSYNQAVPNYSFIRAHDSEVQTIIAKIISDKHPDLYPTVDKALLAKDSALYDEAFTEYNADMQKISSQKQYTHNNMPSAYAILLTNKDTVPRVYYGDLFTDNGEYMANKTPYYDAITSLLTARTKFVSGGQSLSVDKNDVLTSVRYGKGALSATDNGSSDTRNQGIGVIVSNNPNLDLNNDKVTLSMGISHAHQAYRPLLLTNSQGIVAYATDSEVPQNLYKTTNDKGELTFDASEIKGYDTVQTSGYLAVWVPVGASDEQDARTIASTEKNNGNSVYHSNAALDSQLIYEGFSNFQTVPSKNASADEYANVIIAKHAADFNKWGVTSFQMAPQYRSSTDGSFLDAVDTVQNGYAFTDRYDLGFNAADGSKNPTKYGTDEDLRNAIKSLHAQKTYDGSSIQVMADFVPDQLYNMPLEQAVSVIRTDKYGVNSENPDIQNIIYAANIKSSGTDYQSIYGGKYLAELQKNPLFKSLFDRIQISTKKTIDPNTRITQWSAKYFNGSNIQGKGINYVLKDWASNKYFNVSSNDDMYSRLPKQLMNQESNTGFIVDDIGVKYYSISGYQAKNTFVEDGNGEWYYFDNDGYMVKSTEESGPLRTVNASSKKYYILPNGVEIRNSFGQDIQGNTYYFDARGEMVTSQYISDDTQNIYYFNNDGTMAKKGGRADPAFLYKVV
Description: (§1) DNS reducing sugar assay (total activity) on LcALT (truncated Leuconostoc citreum ABK-1 alternansucrase, pETΔ7SH, WT)

[2] = target: T2, LcALT (truncated Leuconostoc citreum ABK-1 alternansucrase, pETΔ7SH, WT) (Leuconostoc citreum, UniProt A0A2H4A2Q1, W554F, form not given)
T2 construct: gene asr; pET19b via NcoI/XhoI, purified recombinant; exact borders and tags only in cited earlier work
T2 sequence (A0A2H4A2Q1 entry or part of it W554F, form open): as the sequence (A0A2H4A2Q1 entry or part of it W554A, form open) above, with A554F counted along it
Description: as §1

[3] = target: T3, LcALT (truncated Leuconostoc citreum ABK-1 alternansucrase, pETΔ7SH, WT) (Leuconostoc citreum, UniProt A0A2H4A2Q1, W554I, form not given)
T3 construct: gene asr; pET19b via NcoI/XhoI, purified recombinant; exact borders and tags only in cited earlier work
T3 sequence (A0A2H4A2Q1 entry or part of it W554I, form open): as the sequence (A0A2H4A2Q1 entry or part of it W554A, form open) above, with A554I counted along it
Description: as §1

[4] = target: T4, LcALT (truncated Leuconostoc citreum ABK-1 alternansucrase, pETΔ7SH, WT) (Leuconostoc citreum, UniProt A0A2H4A2Q1, W554L, form not given)
T4 construct: gene asr; pET19b via NcoI/XhoI, purified recombinant; exact borders and tags only in cited earlier work
T4 sequence (A0A2H4A2Q1 entry or part of it W554L, form open): as the sequence (A0A2H4A2Q1 entry or part of it W554A, form open) above, with A554L counted along it
Description: as §1

[5] = target: T5, LcALT (truncated Leuconostoc citreum ABK-1 alternansucrase, pETΔ7SH, WT) (Leuconostoc citreum, UniProt A0A2H4A2Q1, W554S, form not given)
T5 construct: gene asr; pET19b via NcoI/XhoI, purified recombinant; exact borders and tags only in cited earlier work
T5 sequence (A0A2H4A2Q1 entry or part of it W554S, form open): as the sequence (A0A2H4A2Q1 entry or part of it W554A, form open) above, with A554S counted along it
Description: as §1

[6] = target: T6, LcALT (truncated Leuconostoc citreum ABK-1 alternansucrase, pETΔ7SH, WT) (Leuconostoc citreum, UniProt A0A2H4A2Q1, W554Y, form not given)
T6 construct: gene asr; pET19b via NcoI/XhoI, purified recombinant; exact borders and tags only in cited earlier work
T6 sequence (A0A2H4A2Q1 entry or part of it W554Y, form open): as the sequence (A0A2H4A2Q1 entry or part of it W554A, form open) above, with A554Y counted along it
Description: as §1

Km [1]: 43 ± 4.7 mM
Km [2]: 16.6 ± 2.1 mM
Km [3]: 53.1 ± 4.6 mM
Km [4]: 46.4 ± 6 mM
Km [5]: 63.6 ± 8.3 mM
Km [6]: 14.2 ± 2 mM
SMILES: OC[C@H]1O[C@@](CO)(O[C@H]2O[C@H](CO)[C@@H](O)[C@H](O)[C@H]2O)[C@@H](O)[C@@H]1O [sucrose]
